How the values were obtained:
Assay in all cases: Kinase selectivity, DiscoverX scanMAX Kinase assay panel (% control)
Type in all cases: binding
[1] = biological target: T1, kinases of the scanMAX Kinase assay panel (Homo sapiens, UniProt P10721, A829P); settings: KIT(A829P); 1 uM
T1 construct: purchased DiscoverX Co. (contract measurement) scanMAX Kinase assay panel
Method in brief: (§1)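 Compounds tested at 1 uM against the scanMAX kinase panel. Signal expressed as % control = (compound − positive control)/(DMSO negative control − positive control) × 100, where positive control = 0% and DMSO = 100%; below 35% counted as activity on that kinase.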

[2] = biological target: T2, kinases of the scanMAX Kinase assay panel (Homo sapiens, UniProt O76039); settings: CDKL5; 1 uM
T2 construct: purchased DiscoverX Co. (contract measurement) scanMAX Kinase assay panel
T2 sequence (O76039 1-960): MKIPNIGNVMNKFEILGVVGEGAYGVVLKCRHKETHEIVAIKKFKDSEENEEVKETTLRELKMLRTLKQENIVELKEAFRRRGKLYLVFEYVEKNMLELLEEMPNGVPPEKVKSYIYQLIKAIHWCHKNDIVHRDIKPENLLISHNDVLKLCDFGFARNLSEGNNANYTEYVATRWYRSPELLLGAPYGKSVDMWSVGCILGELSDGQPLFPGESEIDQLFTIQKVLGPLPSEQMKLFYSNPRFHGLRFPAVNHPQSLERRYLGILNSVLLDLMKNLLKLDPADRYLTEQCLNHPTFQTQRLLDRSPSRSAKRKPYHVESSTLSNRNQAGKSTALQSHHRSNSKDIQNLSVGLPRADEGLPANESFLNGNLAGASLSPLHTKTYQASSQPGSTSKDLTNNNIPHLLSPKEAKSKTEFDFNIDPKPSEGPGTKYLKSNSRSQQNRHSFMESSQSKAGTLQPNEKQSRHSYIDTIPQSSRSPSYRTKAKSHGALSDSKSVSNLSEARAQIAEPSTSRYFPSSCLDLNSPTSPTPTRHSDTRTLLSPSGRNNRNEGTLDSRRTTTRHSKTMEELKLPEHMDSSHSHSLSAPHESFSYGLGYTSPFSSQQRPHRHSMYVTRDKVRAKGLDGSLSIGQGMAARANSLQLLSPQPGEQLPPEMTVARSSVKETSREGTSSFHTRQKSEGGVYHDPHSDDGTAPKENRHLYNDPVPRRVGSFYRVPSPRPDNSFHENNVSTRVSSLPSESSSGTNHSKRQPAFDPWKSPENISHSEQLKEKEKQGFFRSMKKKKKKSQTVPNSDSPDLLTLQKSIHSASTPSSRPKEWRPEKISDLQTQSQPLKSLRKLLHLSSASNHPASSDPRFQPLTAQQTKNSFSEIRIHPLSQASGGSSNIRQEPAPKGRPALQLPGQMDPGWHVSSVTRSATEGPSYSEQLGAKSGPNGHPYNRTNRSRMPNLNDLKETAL
Method in brief: as §1

[3] = biological target: T3, kinases of the scanMAX Kinase assay panel (Homo sapiens, UniProt P07948); settings: LYN; 1 uM
T3 construct: purchased DiscoverX Co. (contract measurement) scanMAX Kinase assay panel
T3 sequence (P07948 whole entry): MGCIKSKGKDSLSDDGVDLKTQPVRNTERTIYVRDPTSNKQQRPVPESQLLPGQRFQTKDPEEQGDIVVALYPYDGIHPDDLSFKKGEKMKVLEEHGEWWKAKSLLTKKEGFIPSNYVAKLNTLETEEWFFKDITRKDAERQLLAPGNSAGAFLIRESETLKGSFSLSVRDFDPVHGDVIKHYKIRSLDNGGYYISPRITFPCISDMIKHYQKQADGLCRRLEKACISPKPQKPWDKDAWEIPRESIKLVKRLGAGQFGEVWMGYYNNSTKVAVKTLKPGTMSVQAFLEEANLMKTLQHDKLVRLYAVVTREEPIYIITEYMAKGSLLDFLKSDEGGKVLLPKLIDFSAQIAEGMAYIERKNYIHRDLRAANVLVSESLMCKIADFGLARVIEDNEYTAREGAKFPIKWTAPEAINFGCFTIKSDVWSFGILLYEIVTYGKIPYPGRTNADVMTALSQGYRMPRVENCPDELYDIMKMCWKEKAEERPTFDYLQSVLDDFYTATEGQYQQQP
Method in brief: as §1

[4] = biological target: T4, kinases of the scanMAX Kinase assay panel (Homo sapiens, UniProt P51956); settings: NEK3; 1 uM
T4 construct: purchased DiscoverX Co. (contract measurement) scanMAX Kinase assay panel
T4 sequence (P51956 1-506): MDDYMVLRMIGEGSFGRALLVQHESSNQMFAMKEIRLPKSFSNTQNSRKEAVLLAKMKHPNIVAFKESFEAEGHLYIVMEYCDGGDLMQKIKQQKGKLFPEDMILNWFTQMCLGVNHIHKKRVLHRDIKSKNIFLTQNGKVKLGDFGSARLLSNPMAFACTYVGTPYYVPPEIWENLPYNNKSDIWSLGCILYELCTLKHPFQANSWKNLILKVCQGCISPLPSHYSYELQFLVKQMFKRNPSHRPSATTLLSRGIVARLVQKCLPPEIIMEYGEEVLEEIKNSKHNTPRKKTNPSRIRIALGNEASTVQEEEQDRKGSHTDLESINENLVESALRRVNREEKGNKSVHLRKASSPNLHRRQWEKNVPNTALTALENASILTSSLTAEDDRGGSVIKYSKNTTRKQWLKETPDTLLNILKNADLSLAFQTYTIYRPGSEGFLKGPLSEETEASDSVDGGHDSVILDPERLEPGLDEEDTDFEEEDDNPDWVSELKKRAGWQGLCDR
Method in brief: as §1

[5] = biological target: T5, kinases of the scanMAX Kinase assay panel (Homo sapiens, UniProt Q8IWQ3); settings: BRSK2; 1 uM
T5 construct: purchased DiscoverX Co. (contract measurement) scanMAX Kinase assay panel
T5 sequence (Q8IWQ3 1-736): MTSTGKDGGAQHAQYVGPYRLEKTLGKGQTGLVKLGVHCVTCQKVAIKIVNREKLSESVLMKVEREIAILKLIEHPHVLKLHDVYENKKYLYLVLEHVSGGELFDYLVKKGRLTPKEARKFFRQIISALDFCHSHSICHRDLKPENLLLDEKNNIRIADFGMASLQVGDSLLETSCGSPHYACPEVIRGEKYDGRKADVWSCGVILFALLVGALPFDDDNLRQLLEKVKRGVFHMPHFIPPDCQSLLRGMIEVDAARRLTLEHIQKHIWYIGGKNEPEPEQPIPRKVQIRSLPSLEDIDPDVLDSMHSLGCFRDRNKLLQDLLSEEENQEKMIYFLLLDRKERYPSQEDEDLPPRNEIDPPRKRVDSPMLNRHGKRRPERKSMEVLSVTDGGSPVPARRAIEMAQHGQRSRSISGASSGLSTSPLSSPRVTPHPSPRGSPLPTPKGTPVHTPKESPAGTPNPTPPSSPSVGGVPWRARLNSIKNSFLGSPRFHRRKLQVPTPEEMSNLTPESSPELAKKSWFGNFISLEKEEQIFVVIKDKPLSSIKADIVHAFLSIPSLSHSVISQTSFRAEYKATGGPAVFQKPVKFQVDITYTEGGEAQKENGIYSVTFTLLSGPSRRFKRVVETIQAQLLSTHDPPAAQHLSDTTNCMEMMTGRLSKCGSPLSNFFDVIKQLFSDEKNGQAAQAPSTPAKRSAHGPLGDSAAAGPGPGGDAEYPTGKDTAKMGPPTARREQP
Method in brief: as §1

T1 sequence (P10721 26-976 A829P): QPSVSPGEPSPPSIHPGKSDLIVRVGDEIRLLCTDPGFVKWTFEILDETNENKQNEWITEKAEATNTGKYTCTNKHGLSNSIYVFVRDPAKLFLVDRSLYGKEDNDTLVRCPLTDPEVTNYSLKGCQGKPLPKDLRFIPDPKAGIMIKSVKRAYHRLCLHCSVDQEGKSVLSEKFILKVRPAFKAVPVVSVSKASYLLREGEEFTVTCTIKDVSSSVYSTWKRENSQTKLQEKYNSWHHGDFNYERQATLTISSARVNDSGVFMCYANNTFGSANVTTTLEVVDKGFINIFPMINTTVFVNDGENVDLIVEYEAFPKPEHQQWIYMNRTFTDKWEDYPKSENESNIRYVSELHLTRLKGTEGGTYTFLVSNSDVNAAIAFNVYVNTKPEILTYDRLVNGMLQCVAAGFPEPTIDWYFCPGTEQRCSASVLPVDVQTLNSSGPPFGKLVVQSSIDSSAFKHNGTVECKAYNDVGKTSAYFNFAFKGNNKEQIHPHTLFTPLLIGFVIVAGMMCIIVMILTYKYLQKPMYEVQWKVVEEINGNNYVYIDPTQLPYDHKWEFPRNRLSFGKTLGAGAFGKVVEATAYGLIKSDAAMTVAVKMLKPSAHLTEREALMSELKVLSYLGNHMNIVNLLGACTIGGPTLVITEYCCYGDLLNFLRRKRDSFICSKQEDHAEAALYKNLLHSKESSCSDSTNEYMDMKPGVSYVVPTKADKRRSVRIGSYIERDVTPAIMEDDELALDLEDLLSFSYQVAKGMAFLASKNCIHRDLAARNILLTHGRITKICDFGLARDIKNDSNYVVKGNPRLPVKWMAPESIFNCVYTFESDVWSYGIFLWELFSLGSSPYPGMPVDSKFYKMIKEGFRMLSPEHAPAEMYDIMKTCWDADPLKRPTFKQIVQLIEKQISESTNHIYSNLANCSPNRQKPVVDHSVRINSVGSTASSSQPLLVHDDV

Row | Structure (SMILES) | remaining binding at 1 µM [1] [%] | remaining binding at 1 µM [2] [%] | remaining binding at 1 µM [3] [%] | remaining binding at 1 µM [4] [%] | remaining binding at 1 µM [5] [%]
1 | CCNc1nc(Nc2ccc(C(=O)N3CCC(N4CCOCC4)CC3)cc2OC)nc2[nH]cc(C(F)(F)F)c12 [Example 104, (4-((4-(ethylamino)-5-(trifluoromethyl)-7H-pyrrolo[2,3-d]pyrimidine-2-yl)amino)-3-methoxyphenyl)(4-morpholinopiperidine-1-yl)methanone] | 100 | 100 | 100 | 82 | 100
2 | CNc1nc(Nc2ccc(C(=O)N3CCOCC3)cc2OC)nc2[nH]cc(C#N)c12 [Example 1, 2-((2-methoxy-4-(morpholine-4-carbonyl)phenyl)amino)-4-(methylamino)-7H-pyrrolo[2,3-d]pyrimidine-5-carbonitrile] | 60 | 76 | 90 | 70 | 89
3 | CC1(Nc2nc(Nc3cnn([C@H]4CCN(C5COC5)C[C@@H]4F)c3Cl)nc3[nH]cc(C#N)c23)CC1 [Example 52, 2-((5-chloro-1-((3S,4S)-3-fluoro-1-(oxetane-3-yl)piperidine-4-yl)-1H-pyrazole-4-yl)amino)((1-methylcyclopropyl)amino)-7H-pyrrolo[2,3-d]pyrimidine-5-carbonitrile] | 11 | 100 | 36 | 96 | 70

Reference: patent publication US11208412B2 (DAEGU-GYEONGBUK MEDICAL INNOVATION FOUNDATION, priority 2017, dated 2021)
